Results published in ChEMBL document CHEMBL4138122, “Azaphenothiazines - promising phenothiazine derivatives. An insight into nomenclature, synthesis, structure elucidation and biological properties” (Eur J Med Chem, 2017).
≈ marks a conversion by molar mass, not a printed value.

Legend:
Candida albicans [1] = experiment: Antimicrobial activity against Candida albicans assessed as reduction in […] growth at 500 to 1000 ppm relative to control; format: functional
Aspergillus terreus [2] = experiment: Antimicrobial activity against Aspergillus terreus assessed as reduction in microbial growth at 1 to 10 ppm relative to control; format: functional
[3] = test system: Trichophyton mentagrophytes; experiment: Antimicrobial activity against Trichophyton mentagrophytes assessed as reduction in microbial growth at 1 to 10 ppm relative to control; format: functional
Staphylococcus aureus [4] = experiment: Antimicrobial activity against Staphylococcus aureus assessed as reduction in bacterial growth at 500 to 1000 ppm relative to control; format: functional
Bacillus subtilis [5] = experiment: Antimicrobial activity against Bacillus subtilis assessed as reduction in microbial growth at 1 to 10 ppm relative to control; format: functional
Rattus norvegicus [6] = species on record: Rattus norvegicus; experiment: Antioxidant activity in albino rat assessed as inhibition of catalase induced H2O2 production; format: functional
Cholinesterase = Cholinesterase (Equus caballus, UniProt P81908); experiment: Inhibition of horse serum BChE
Chain of Cholinesterase (P81908 whole entry): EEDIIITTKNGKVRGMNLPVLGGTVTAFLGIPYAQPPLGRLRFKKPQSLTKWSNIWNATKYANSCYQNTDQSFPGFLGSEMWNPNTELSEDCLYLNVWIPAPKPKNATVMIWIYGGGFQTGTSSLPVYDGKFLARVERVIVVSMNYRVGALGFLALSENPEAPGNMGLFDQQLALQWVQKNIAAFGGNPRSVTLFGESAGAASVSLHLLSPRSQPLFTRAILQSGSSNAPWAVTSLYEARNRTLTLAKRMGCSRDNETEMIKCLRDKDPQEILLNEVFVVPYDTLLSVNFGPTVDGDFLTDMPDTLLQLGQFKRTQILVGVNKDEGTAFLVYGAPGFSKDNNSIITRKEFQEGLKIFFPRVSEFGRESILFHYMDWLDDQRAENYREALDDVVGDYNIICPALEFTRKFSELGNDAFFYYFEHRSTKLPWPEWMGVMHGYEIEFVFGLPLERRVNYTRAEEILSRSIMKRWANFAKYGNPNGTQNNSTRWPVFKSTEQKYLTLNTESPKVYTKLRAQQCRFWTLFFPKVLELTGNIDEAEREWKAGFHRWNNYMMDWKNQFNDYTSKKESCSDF

[7] = biological target: Cholinesterase (Equus caballus) (UniProt P81908); experiment: Inhibition of horse serum BChE at 10 uM
Chain of Cholinesterase (Equus caballus) (P81908 whole entry): as above

[8] = Inhibition of lipoxygenase in rat peritoneal cavity resident cells
MCF7 [9] = experiment: Growth inhibition of human MCF7 cells at 10 uM; format: functional; settings: read-out: GI
UO-31 = experiment: Growth inhibition of human UO31 cells at 10 uM; format: functional; settings: read-out: GI
Escherichia coli = experiment: Antibacterial activity against Escherichia coli; format: functional; settings: Escherichia coli
Bacillus cereus = experiment: Antibacterial activity against Bacillus cereus; format: functional, organism-based
Salmonella typhimurium = experiment: Antibacterial activity against Salmonella typhimurium; format: functional, Salmonella enterica subsp. enterica serovar Typhimurium; settings: Salmonella enterica
HFF-1 = experiment: Cytotoxicity against human HFF1 cells incubated for 72 hrs by WST1 dye based assay; format: cell-based; settings: HFF-1, 72 h
C32 = experiment: Cytotoxicity against human C32 cells incubated for 72 hrs by WST1 dye based assay; format: functional, cell-based; settings: C32, 72 h
Aspergillus niger = experiment: Antifungal activity against Aspergillus niger; format: functional
Staphylococcus aureus [10] = experiment: Antibacterial activity against Staphylococcus aureus; format: functional; settings: Staphylococcus aureus; read-out: MIC
Bacillus subtilis [11] = experiment: Antibacterial activity against Bacillus subtilis; format: functional; settings: Bacillus subtilis
Rattus norvegicus [12] = experiment: Anti-asthmatic activity in rat assessed as inhibition of egg albumin-induced duration of symptoms of dyspnoea at 3 mg/kg, po administered 90 mins prior to dyspnoea induction; format: functional
[13] = test system: Human immunodeficiency virus; experiment: Antiviral activity against HIV infected in human MT4 cells; format: functional, organism-based; settings: Human immunodeficiency virus 1, MT4
Candida albicans [14] = experiment: microbe, parasite or virus in culture
Enterococcus faecalis = experiment: Antibacterial activity against Enterococcus faecalis; format: functional
Lipoxygenase [15] = biological target: T1, Lipoxygenase (Glycine max, UniProt Q39829); experiment: Inhibition of soybean lipoxygenase using linoleic acid as substrate preincubated for 5 mins followed by substrate addition measuredf after 7 mins by solution A/B solution based assay
[16] = Antioxidant activity assessed as DPPH radical scavenging activity; format: functional; settings: dose or concentration not given here
Mus musculus [17] = species on record: Mus musculus; experiment: Antioxidant activity in Swiss albino mouse assessed as GSH level per mg tissue; format: functional
Mus musculus [18] = species on record: Mus musculus; experiment: Antioxidant activity in Swiss albino mouse assessed as LPO level per mg tissue; format: functional
Staphylococcus aureus [19] = experiment: Antimicrobial activity against Staphylococcus aureus assessed as reduction in bacterial growth at 100 ppm relative to control; format: functional
[20] = test system: Trichophyton mentagrophytes; experiment: Antimicrobial activity against Trichophyton mentagrophytes assessed as reduction in microbial growth at 100 ppm relative to control; format: functional
Aspergillus terreus [21] = experiment: Antimicrobial activity against Aspergillus terreus assessed as reduction in microbial growth at 100 ppm relative to control; format: functional
Aureobasidium pullulans = experiment: Antimicrobial activity against Pullularia pullulans assessed as reduction in microbial growth at 100 ppm relative to control; format: functional
Candida albicans [22] = experiment: Antimicrobial activity against Candida albicans assessed as reduction in […] growth at 100 ppm relative to control; format: functional
[23] = biological target: Vascular cell adhesion protein 1 (Homo sapiens, UniProt P19320); experiment: Inhibition of VCAM1 (unknown origin)
Chain of Vascular cell adhesion protein 1 (P19320 whole entry): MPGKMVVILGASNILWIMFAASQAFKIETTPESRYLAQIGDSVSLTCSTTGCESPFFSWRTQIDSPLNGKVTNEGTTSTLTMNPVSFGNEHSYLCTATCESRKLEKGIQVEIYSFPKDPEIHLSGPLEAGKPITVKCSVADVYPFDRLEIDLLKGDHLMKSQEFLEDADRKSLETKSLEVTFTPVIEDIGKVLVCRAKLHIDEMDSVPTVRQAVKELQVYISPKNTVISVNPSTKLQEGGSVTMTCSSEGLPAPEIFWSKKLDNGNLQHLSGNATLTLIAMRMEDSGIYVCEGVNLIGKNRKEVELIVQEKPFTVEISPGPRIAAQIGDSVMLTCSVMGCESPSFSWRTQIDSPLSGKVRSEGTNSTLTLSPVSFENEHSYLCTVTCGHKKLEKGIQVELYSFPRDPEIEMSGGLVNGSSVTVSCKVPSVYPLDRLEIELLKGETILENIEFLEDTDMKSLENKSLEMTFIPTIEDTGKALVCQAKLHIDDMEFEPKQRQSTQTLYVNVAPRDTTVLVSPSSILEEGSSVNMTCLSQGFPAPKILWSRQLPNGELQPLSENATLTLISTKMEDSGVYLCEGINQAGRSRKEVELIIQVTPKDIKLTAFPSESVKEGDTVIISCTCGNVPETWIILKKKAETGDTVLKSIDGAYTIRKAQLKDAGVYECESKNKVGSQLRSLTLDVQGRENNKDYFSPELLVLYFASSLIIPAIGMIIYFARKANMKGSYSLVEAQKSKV

HUVEC [24] = experiment: Anti-inflammatory activity in human HUVEC cells assessed as reduction in TNFalpha-induced E-selectin expression after 4 hrs by ELISA; format: functional, cell-based
HUVEC [25] = experiment: Anti-inflammatory activity in human HUVEC cells assessed as reduction in TNFalpha-induced VCAM expression after 4 hrs by ELISA; format: functional, cell-based
[26] = biological target: Intercellular adhesion molecule 1 (Homo sapiens, UniProt P05362); experiment: Inhibition of ICAM1 (unknown origin)
Chain of Intercellular adhesion molecule 1 (P05362 whole entry): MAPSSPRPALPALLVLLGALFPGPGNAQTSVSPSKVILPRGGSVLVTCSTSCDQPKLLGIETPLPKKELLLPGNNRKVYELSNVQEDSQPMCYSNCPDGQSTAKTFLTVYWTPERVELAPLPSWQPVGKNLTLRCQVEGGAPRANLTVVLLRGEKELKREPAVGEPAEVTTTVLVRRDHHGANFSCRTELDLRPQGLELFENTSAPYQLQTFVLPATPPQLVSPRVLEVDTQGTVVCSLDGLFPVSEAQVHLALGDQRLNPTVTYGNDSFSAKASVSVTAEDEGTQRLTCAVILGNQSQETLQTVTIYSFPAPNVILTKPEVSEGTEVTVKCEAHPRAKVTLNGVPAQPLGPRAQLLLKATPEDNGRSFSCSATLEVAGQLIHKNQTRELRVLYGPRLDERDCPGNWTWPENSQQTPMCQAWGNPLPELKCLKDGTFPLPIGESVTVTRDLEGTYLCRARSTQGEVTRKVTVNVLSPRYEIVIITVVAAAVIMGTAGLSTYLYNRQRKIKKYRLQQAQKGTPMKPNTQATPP

Mus musculus [27] = experiment: Anti-inflammatory activity in IL1-induced paw inflammation Balb/c mouse model assessed as inhibition of neutrophil migration at 10 mg/kg, po, pretreated for 30 mins followed by IL1 challenge measured after 2 hrs by spectrophotometric method; format: functional
MCF7 [28] = experiment: Cytotoxicity against human MCF7 cells incubated for 72 hrs by WST1 dye based assay; format: functional, cell-based; settings: MCF7, 72 h
[29] = Antioxidant activity assessed as H2O2 scavenging activity; format: functional; settings: dose or concentration not given here
Staphylococcus aureus [30] = experiment: Antibacterial activity against methicillin-resistant Staphylococcus aureus; format: functional
SNB-19 = experiment: Cytotoxicity against human SNB19 cells incubated for 72 hrs by WST1 dye based assay; format: functional, cell-based; settings: SNB-19, 72 h
T47D = experiment: Cytotoxicity against human T47D cells; format: functional, cell-based
Lipoxygenase [31] = biological target: T1, Lipoxygenase; experiment: Inhibition of soybean lipoxygenase

For [O-][S+]1c2ccccc2Nc2nc(Cl)c(Cl)nc21 (stereo not given), the “inhibition (INH)” value (Candida albicans [1]) was 100%, the “inhibition (INH)” value (Aspergillus terreus [2]) was 100% and the “inhibition (INH)” value [3] was 100%. For the same compound, the “inhibition (INH)” value (Staphylococcus aureus [4]) was 100% and the “inhibition (INH)” value (Bacillus subtilis [5]) was 100%.

For O=C1O[C@H]([C@@H](O)CO)C(O)=C1O [ASCORBIC ACID], the “inhibition (INH)” value (Rattus norvegicus [6]) was 71.9%.

Work on CN1CCCCC1CCN1c2nc3ccccc3cc2Sc2cc3ccccc3nc21 (stereo not given) yielded an IC50 (Cholinesterase) of 0.0118 µM and an inhibition [7] of 99.8%.

Work on O=c1[nH]c2c(c(=O)[nH]1)Nc1ccccc1S2 [PYRIMIDOBENZOTHIAZINE] yielded an IC50 [8] of 5.3 µM.

Clc1ccc(N2c3nc4ccccc4cc3Sc3cc4ccccc4nc32)cc1 showed an inhibition of growth at 10 µM (MCF7 [9]) of 63% and an inhibition of growth at 10 µM (UO-31) of 57 to 73%.

O=C(O)c1cn(C2CC2)c2c3c(c(F)cc2c1=O)Sc1ccccc1N3 gave an MIC (Escherichia coli) of 0.75 µg/mL (≈ 2.04 µM), an MIC (Bacillus cereus) of 3 µg/mL (≈ 8.14 µM) and an MIC (Salmonella typhimurium) of 6 µg/mL (≈ 16.3 µM).

For CCN(CC)CCN1c2cccnc2Sc2cccnc21, the IC50 (HFF-1) was ≥ 50 µg/mL and the IC50 (C32) was 6.6 µg/mL (≈ 22 µM).

For CCSc1ncc2c(n1)N=c1c(c3c(c4ccccc14)=Nc1nc(SCC)nc(O)c1S3)S2, the MIC (Aspergillus niger) was 60.3 µg/mL (≈ 119 µM), the MIC (Staphylococcus aureus [10]) was 39.8 µg/mL (≈ 78.2 µM) and the IC50 (Bacillus cereus) was 50.5 µg/mL (≈ 99.3 µM). The MIC (Bacillus subtilis [11]) was 63.3 µg/mL (≈ 124 µM).

With COc1ccc2c(c1)[S+]([O-])c1nccnc1N2C (stereo not given) the inhibition in vivo at 3 mg/kg (Rattus norvegicus [12]) was 12.5%.

In the case of CCOCn1c(=O)[nH]c2c(c1=O)Nc1ccc(C)cc1S2, the IC50 [13] is reported as 4.58 µM.

Compound COc1ccc2c(n1)Sc1c3c(c4ccccc4c1=N2)=Nc1ccc(OC)nc1S3 has an MIC (Candida albicans [14]) of 72.4 µg/mL (≈ 168 µM) and an MIC (Escherichia coli) of 144 µg/mL (≈ 336 µM).

For Cc1ccc2c(c1)Sc1c[n+](C)c3ccccc3c1N2.[Cl-], the MIC (Enterococcus faecalis) was 11 µg/mL.

CCN1CCN(c2nc(C)c3c(n2)Sc2ccccc2N3)CC1 gave an IC50 (Lipoxygenase [15]) of 40.7 µM.

Work on COc1cccc2c3c(c4nc5ccccc5c(=O)n4c12)Sc1cc(C)ccc1N3 yielded an inhibition [16] of 45.6 to 47.3%, an Activity (Mus musculus [17]) of 6.8 nM and an Activity (Mus musculus [18]) of 4.5 to 4.6 nM.

Compound Clc1nc2c(nc1Cl)N(CCC1CCCN1)c1ccccc1S2 (stereo not given) has an inhibition at 100 ppm (Staphylococcus aureus [19]) of 100%, an inhibition at 100 ppm [20] of 100% and an inhibition at 100 ppm (Aspergillus terreus [21]) of 100%. It also gave an inhibition at 100 ppm (Aureobasidium pullulans) of 100% and an inhibition at 100 ppm (Candida albicans [22]) of 100%.

Compound CN(C)S(=O)(=O)NC1CCN(Cc2ccc3c(c2)Nc2nccnc2S3)CC1 has an IC50 [23] of 4.5 µM, an IC50 (HUVEC [24]) of 0.55 µM and an IC50 (HUVEC [25]) of 0.36 µM. For the same compound, the IC50 [26] was 0.27 to 1.4 µM and the inhibition in vivo at 10 mg/kg (Mus musculus [27]) was 83.4 to 89.7%.

With c1cnc2c(c1)Nc1ncccc1S2 the IC50 (HFF-1) was ≥ 50 µg/mL, the IC50 (MCF7 [28]) was 4.8 µg/mL (≈ 23.9 µM) and the IC50 (C32) was 7.5 µg/mL (≈ 37.3 µM).

With O=C1C(c2ccc(Br)cc2)=C2Sc3cccnc3NC2c2ccccc21 (stereo not given) the inhibition [29] was < 100%.

For COc1ccc2c(c1)Sc1c(F)cc3c(=O)c(C(=O)O)cn(C4CC4)c3c1N2, the MIC (Staphylococcus aureus [30]) was 25 µg/mL (≈ 62.7 µM) and the MIC (Salmonella typhimurium) was 6 µg/mL (≈ 15.1 µM).

In the case of CN(C)CCCN1c2ccccc2Sc2nc(Cl)c(Cl)nc21, the inhibition at 100 ppm (Staphylococcus aureus [19]) is reported as 100%, the inhibition at 100 ppm [20] is reported as 100% and the inhibition at 100 ppm (Aspergillus terreus [21]) is reported as 100%. For the same compound, the inhibition at 100 ppm (Aureobasidium pullulans) was 100% and the inhibition at 100 ppm (Candida albicans [22]) was 100%.

With COc1cccc2c1Nc1c(c3nc4ccccc4c(=O)n3c3c(OC)cccc13)S2 the inhibition [16] was 45.6 to 47.3%, the Activity (Mus musculus [17]) was 6.8 nM and the Activity (Mus musculus [18]) was 4.5 to 4.6 nM.

For CN(C)CCCN1c2ccccc2Sc2cccnc21 [PROTHIPENDYL], the IC50 (HFF-1) was ≥ 23 µg/mL, the IC50 (SNB-19) was ≥ 23 µg/mL and the IC50 (MCF7 [28]) was ≥ 23 µg/mL. The IC50 (C32) was ≥ 23 µg/mL and the IC50 (T47D) was 32.3 µg/mL (≈ 113 µM).

For CN1CCCCC1CCN1c2ccc(Cl)cc2Sc2cc3ccccc3nc21 (stereo not given), the IC50 (Cholinesterase) was 0.122 µM and the inhibition [7] was 99.9%.

For O=C1C(Cl)=C2Sc3cccnc3NC2c2ccccc21 (stereo not given), the inhibition [29] was < 100% and the “inhibition (INH)” value (Rattus norvegicus [6]) was 77.9%.

C[n+]1cc2c(c3ccccc31)Nc1ccc(Br)cc1S2.[Cl-] gave an MIC (Enterococcus faecalis) of 9 µg/mL and an MIC (Staphylococcus aureus [10]) of 26 µg/mL.

Compound CCCc1nc(N2CCN(C)CC2)nc2c1Nc1ccccc1S2 has an IC50 (Lipoxygenase [31]) of 8.9 µM.
